Test results published in patent US10996215B2, “Methods for determining drug efficacy for the treatment of diffuse large B-cell lymphoma, multiple myeloma, and myeloid cancers” (CELGENE CORPORATION, priority 2013, dated 2021).

What was measured:
[1] = system: MDS-L; test: 4 d BrdU cell assay / tritiated thymidine, sensitivity; assay type: cell-based; conditions: FIG. 22B
Procedure: (§1) Sensitivity to lenalidomide treatment in a panel of myeloid cancer cell lines was evaluated by tritiated thymidine and/or BrdU assays.

[2] = system: HNT-34; test: as above; assay type: cell-based; conditions: FIG. 22B
Procedure: as §1

[3] = system: Aiolos, Ikaros, ZFP91; test: Western blot in myeloma, lymphoma and primary B cells; assay type: cell-based; conditions: U266, DF15, RPMI8226, OCI-LY10, WSU-DLCL2, WSU-DLCL2 Compound A resistant, primary B cells; 8 hours
Procedure: Multiple myeloma cells (U266, DF15, RPMI8226), diffuse large B cell lymphoma cells (OCI-LY10, WSU-DLCL2, WSU-DLCL2 Compound A resistant), and primary B cells were treated with DMSO, […] or […] for 8 hours. Cells were harvested and were treated in cell lysis buffer to generate cell lysates. Proteins from cell lysate were separated by gel electrophoresis (10% SDS-PAGE) and transferred to nitrocellulose membranes. Immunoblots were then probed with antibodies recognizing Aiolos, CRBN, Ikaros, ZFP91 (LSBio), IRF4, IRF7, Myc, and β-actin (Li-Cor).

[4] = system: CSNK1A1 (CK1α), Ikaros; test: MG-132, MLN-4924 or Compound A pre-treatment, Western analysis in HNT-34 cells; assay type: cell-based; conditions: 10 μM Compound A 1.5 h, 0.3 μM or less lenalidomide, 3 h or 6 h
[5] = system: Aiolos, Ikaros, IRF4, Cereblon; test: Western blot of Aiolos, Ikaros, IRF4, Cereblon in DLBCL cell lines; assay type: cell-based, human
Procedure: Immunoblots were probed with antibodies recognizing: Aiolos, Ikaros, Cereblon, IRF4, c-myc, CD44, EZH2, EBF 1, PU. 1, and β-actin. Signals were detected with a LI-COR imager
The following steps can be performed to harvest cells in preparation for Western Blot analysis. The steps are performed on ice and any centrifugation is performed in a 4° C. refrigerated centrifuge. RIPA lysis buffer (Pierce, cat #89900) is first prepared by adding […] proteinase inhibitors (Pierce, cat #78443) to 1 mL of RIPA buffer. Subsequently, cells are washed once in ice-cold phosphate buffered saline (PBS). The cells are then lysed with 0.25 mL RIPA lysis buffer. The PBMCs are placed on ice for 30 minutes and vortexed every 10 minutes. Lysates are frozen and stored at −80° C. prior to further processing.
Lysates are placed in a QIAshredder® tube (QIAGEN, cat #79656) and spun down 30 sec, top speed (13200 rpm) in an Eppendorf benchtop centrifuge (Model 5415 R). The lysate is then transferred to a 1.5 mL clear Eppendorf tube and spun down 10 min at top speed. The supernatent is collected without disturbing the cell debris pellet. The supernatent is dry ice frozen and stored at −80° C. prior to analysis.
The protein concentration in supernatent is measured using BCA assay and the expected protein yield is about 0.5-5 μg/μL, or 125-1250 μg total. Approximately ≥10 μg protein per lane is loaded for western blotting (IRF4, IKZF3, etc.) using antibodies against the human proteins.
Membranes are immunblotted with anti-Aiolos (Santa Cruz Biotechnology, Dallas, Tex.), anti-Ikaros (Millipore, Billerica, Mass.) and anti-Actin (Sigma, St. Louis, Mo.; or LI-COR Biosciences, Lincoln, Nebr.) and secondary antibodies (LI-COR Biosciences, Lincoln, Nebr.). The blots are analyzed on Odyssey imager (LI-COR Biosciences, Lincoln, Nebr.).

[6] = system: Aiolos, Ikaros, ZFP91; test: CRBN dependence of ZFP91 reduction in U266 cells, Western blot; assay type: cell-based; conditions: 6 hour
Procedure: U266 cells were transduced with inducible shRNA constructs targeting CRBN or targeting luciferase as control. Cells were grown in the presence or in the absence of 10 ng/ml Doxycycline, and in the presence or in the absence of 1 μM pomalidomide. Cells were harvested and were treated in cell lysis buffer to generate cell lysates. Proteins from cell lysate were separated by gel electrophoresis and transferred to nitrocellulose membranes. Immunoblots were then probed with antibodies recognizing Aiolos, CRBN, Ikaros, ZFP91, IRF4, IFIT1, IFIT3, P-STAT1, and β-actin (Li-Cor).
Cells were harvested, and lysates were run on 10% SDS-PAGE and immunoblotted with the appropriate antibodies.
MG132 activates c-Jun N-terminal kinase (JNK1), which initiates apoptosis. […] MLN4924 is a NAE1 inhibitor that blocks the activity of Cullin Ring Ligases (CRLs), such as CRL4^CRBN. […] Cells were harvested and lysates were run on 10% SDS-PAGE, transferred to nitrocellulose and immunoblotted with the corresponding antibodies.

[7] = system: TMD8 (ABC) or Karpas 422 (GCB) cells; test: competition with lenalidomide for CRBN, 3H-thymidine proliferation; assay type: cell-based; conditions: TMD8 or Karpas 422; co-treatment with 10 μM lenalidomide; competition of binding to the CRBN complex

## Cc1nc2cccc(N)c2c(=O)n1C1CCC(=O)NC1=O (centres unmarked) [Compound A, 3-(5-amino-2-methyl-4-oxo-4H-quinazolin-3-yl)-piperidine-2,6-dione]
[1]
  sensitivity of MDS-L cells: sensitive
[2]
  sensitivity of HNT-34 cells: only MDS-L cells were sensitive to Compound A
[3]
  levels of Aiolos, Ikaros, and ZFP91: reduced
[4]
  lenalidomide induced CSNK1A1 degradation after Compound A pre-treatment: blocks
[5]; DLBCL cell lines, 1 μM or 10 μM, within 72 hours
  IRF4 levels: reduce
[5]; Karpas 422 (GCB) and TMD8 (ABC), 10 μM, 1, 6 or 12 hours, vs DMSO
  Aiolos levels: decrease
[5]; WSU-DLCL2 (GCB) and OCI-LY10 (ABC), 10 μM, 1, 6 or 12 hours, vs DMSO
  Aiolos and Ikaros levels: decreasing
[5]; nine GCB and ABC DLBCL cell lines, 1 μM or 10 μM, 72 hours
  CRBN levels: remained constant
[5]; nine GCB and ABC DLBCL cell lines, 1 μM or 10 μM, 72 hours, vs DMSO
  Aiolos and Ikaros levels: decreasing
[6]
  destruction of Aiolos, Ikaros, and ZFP91 (CRBN dependent pathway): induced
[7]
  anti-proliferative effects on co-treatment with lenalidomide: blocks anti-proliferative effects of Compound A
